Experimental data as given in patent US11458134B2, “1-[2-(2,4-dimeihylphenylsulfanyl)-phenyl]piperazine as a compound with combined serotonin reuptake, 5-HT3 and 5-HT1A activity for the treatment of cognitive impairment” (H. Lundbeck A/S, priority 2006, dated 2022).
Converted amounts (≈) assume the structure as drawn. Like-named read-outs stand apart in the source and are kept apart here.

What was measured:
physchem = details: water
[1] = Hygroscopicity (water absorption versus relative humidity); format: physicochemical
Human 5-HT3A receptor = molecular target: T1, Human 5-HT3A receptor (Homo sapiens, UniProt P46098); experiment: Human 5-HT3A receptor functional assay (cloned into oocytes); format: cell-based; details: at higher concentration, read-out: ED50 (agonistic activity)
T1 sequence (P46098 24-478): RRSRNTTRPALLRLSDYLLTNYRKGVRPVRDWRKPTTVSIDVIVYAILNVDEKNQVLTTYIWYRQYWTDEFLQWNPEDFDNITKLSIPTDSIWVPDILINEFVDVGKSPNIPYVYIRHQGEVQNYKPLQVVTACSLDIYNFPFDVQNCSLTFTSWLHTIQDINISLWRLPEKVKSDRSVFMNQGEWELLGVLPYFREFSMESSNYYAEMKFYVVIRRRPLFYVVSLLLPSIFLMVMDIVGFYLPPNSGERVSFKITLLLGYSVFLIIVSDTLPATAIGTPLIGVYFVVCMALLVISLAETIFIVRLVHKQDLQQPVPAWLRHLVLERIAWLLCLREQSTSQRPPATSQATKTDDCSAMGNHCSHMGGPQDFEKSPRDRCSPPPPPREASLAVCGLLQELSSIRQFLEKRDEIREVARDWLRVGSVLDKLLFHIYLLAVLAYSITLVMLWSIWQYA
Text: As shown in example 1, the compounds of the present invention are potent inhibitors of the human serotonin transporter, i.e. they inhibit serotonin reuptake. Moreover, the compounds are potent antagonists at the mouse, rat, guinea pig and canine 5-HT3 receptor. […] Thus, at low concentrations compounds of the present invention display a marked antagonism at the human 5-HT3 receptor as observed on the 5-HT3 receptor from other species.

[2] = molecular target: Rat serotonin transporter (Rattus norvegicus, UniProt P31652); experiment: Rat serotonin transporter, blockade of 5-HT uptake; format: biochemical
Sequence of Rat serotonin transporter (P31652 whole entry): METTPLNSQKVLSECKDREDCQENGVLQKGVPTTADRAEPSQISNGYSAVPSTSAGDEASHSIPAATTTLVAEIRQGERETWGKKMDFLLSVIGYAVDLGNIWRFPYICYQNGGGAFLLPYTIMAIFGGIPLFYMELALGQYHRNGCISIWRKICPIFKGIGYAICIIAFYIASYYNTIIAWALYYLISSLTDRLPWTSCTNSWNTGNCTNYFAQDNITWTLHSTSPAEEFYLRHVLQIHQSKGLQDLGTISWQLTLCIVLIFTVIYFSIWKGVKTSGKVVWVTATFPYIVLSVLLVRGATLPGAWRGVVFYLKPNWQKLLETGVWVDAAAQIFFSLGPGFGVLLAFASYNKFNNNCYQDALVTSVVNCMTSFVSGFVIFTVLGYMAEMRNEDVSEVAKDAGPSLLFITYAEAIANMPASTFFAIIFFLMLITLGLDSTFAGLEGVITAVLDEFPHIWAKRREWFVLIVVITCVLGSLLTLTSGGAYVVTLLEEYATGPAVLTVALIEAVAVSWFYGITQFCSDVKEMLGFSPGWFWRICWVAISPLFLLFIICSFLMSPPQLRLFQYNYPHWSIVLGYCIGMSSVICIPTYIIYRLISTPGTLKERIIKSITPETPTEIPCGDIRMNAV

acetylcholine = experiment: Microdialysis: extracellular acetylcholine in the brain of freely moving rats; format: in vivo, Sprague-Dawley rats; details: rat, subcutaneously 2.5-10 mg/kg
Description: The animals were administered 1-[2-(2,4-dimethylphenylsulfanyl)phenyl]-piparazine, HBr salt.
Male Sprague-Dawley rats, initially weighing 275-300 g, were used. The animals were housed under a 12-hr light/dark cycle under controlled conditions for regular in-door temperature (21±2° C.) and humidity (55±5%) with food and tap water available ad libitum.
Rats were anaesthetised with hypnorm/dormicum (2 ml/kg) and intracerebral guide cannulas (CMA/12) were stereotaxically implanted into the brain, aiming at positioning the dialysis probe tip in the ventral hippocampus (co-ordinates: 5.6 mm posterior to bregma, lateral −5.0 mm, 7.0 mm ventral to dura) or in the prefrontal cortex (co-ordinates: 3.2 mm anterior to bregma; lateral, 0.8 mm; 4.0 mm ventral to dura). […] The body temperature of the animals was monitored by rectal probe and maintained at 37° C. […]
The compound dissolved in 10% HPbetaCD and injected subcutaneously (2.5-10 mg/kg). Doses are expressed as mg salt/kg body weight. […]
Concentration of acetylcholine (ACh) in the dialysates was analysed by means of HPLC with electrochemical detection using a mobile phase consisting of 100 mM disodium hydrogenphosphate, 2.0 mM octane sulfonic acid, 0.5 mM tetramethyl-ammonium chloride and 0.005% MB (ESA), pH 8.0. […] The latter was detected electrochemical by using a platinum electrode (Analytical cell: ESA, model 5040). […]

Sprague-Dawley rats = experiment: Contextual fear conditioning in rats; format: in vivo; details: for time spent freezing during the retention test: 24 h after acquisition
Text: The compound administered in the present experiment was 1-[2-(2,4-dimethylphenylsulfanyl)phenyl]piperazine HBr salt.
We have studied the effect of the compound on acquisition, consolidation and recall of contextual fear conditioning in rats. In the fear conditioning paradigm animals learn to associate a neutral environment (context, the training chamber, CS) with an aversive experience (an electrical foot-shock, US). During re-exposure to the training chamber, animals express a freezing behaviour, which is taken as a direct measure of the fear-related memory [Pavlov J. Biol. Sci., 15, 177-182, 1980]. […] Neurosci., 106, 274-285, 1992].
Adult male Sprague-Dawley rats (weighing 250-300 g at time of training) from Charles River Laboratories, housed two per cage under a 12 h light/dark cycle, were used. Food and water were available ad libitum. Rats were used 1 week after arrival. The compound was dissolved in 10% HPbetaCD and injected subcutaneously. The drug was administered in a volume of 2.5 ml/kg.
Training and testing were conducted in a soundproof chamber (30×20×40 cm) housed in an isolated room and connected to a ventilation system. Illumination was provided by a white light (60 Watt). The floor of the chamber consisted of a metal grid attached to an electric shock generator. Prior to training and testing, the chamber was cleaned with a 70% ethanol solution. A video camera allowed for behavioral observations and recording of the training session for off-line analysis.
During the acquisition animals were allowed to freely explore the novel environment for a 1 min habituation period, which co-terminated with one inescapable foot-shock (unconditioned stimulus, US) through the electrifiable grid floor. […] Animals remained in the conditioning chamber for another 60 s after the US. Freezing behaviour was scored during the first 58 s (pre-shock acquisition; experimenter blinded to groups) to determine baseline-freezing responses to the context. At the end of the acquisition animals were gently removed and placed into their home cages. After 24 h the same animals were reintroduced into the training context (fear conditioning chamber) and a 2 min retention test was performed. During this period no foot shocks were applied. Freezing behaviour was scored during the whole test period with the experimenter blinded to groups and presented as percent of total test period.

In the case of `CS(=O)(=O)O.Cc1ccc(Sc2ccccc2N2CCNCC2)c(C)c1` [mesylate, 1-[2-(2,4-Dimethylphenylsulfanyl)-phenyl]piperazine mesylate], the solubility (physchem) is reported as > 45000 µg/mL and the “hygroscopicity” value [1] is reported as “hygroscopic”.
In the case of `Cc1ccc(Sc2ccccc2N2CCNCC2)c(C)c1.Cl` [hydrochloride monohydrate, 1-[2-(2,4-Dimethylphenylsulfanyl)-phenyl]piperazine HCl], the solubility (physchem) is reported as ~2000 µg/mL and the “hygroscopicity” value [1] is reported as “does not absorb further amount of water”.
For `Br.CCOC(C)=O.Cc1ccc(Sc2ccccc2N2CCNCC2)c(C)c1` [ethyl acetate solvate, 1-[2-(2,4-Dimethylphenylsulfanyl)-phenyl]piperazine HBr EtOAc solvate], the “hygroscopicity” value [1] was “hygroscopic”.
`Cc1ccc(Sc2ccccc2N2CCNCC2)c(C)c1` [compound I, 1-[2-(2,4-dimethylphenylsulfanyl)-phenyl]piperazine] showed an EC50 (Human 5-HT3A receptor) of 2.1 µM and an IC50 [2] of 0.0053 µM.
With `Cc1ccc(Sc2ccccc2N2CCNCC2)c(C)c1.O=[N+]([O-])O` [nitrate, 1-[2-(2,4-Dimethylphenylsulfanyl)-phenyl]piperazine nitrate] the solubility (physchem) was ~800 µg/mL.
Work on `Cc1ccc(Sc2ccccc2N2CCNCC2)c(C)c1.O=C(O)C(O)C(O)C(=O)O` [L-(+)-tartrate, 1-[2-(2,4-Dimethylphenylsulfanyl)-phenyl]piperazine (+)-tartaric acid] yielded a solubility (physchem) of ~400 µg/mL.
With `Br.Cc1ccc(Sc2ccccc2N2CCNCC2)c(C)c1` [beta form of the hydrobromide, 1-[2-(2,4-Dimethylphenylsulfanyl)-phenyl]piperazine hydrobromide] the solubility in water (Solubility in water; hydrobromide) was 1200 µg/mL.
In the case of `Br.Cc1ccc(Sc2ccccc2N2CCNCC2)c(C)c1` [hemi hydrate of the hydrobromide], the water content ([1]; room temperature and 95% RH) is reported as “about 3.7%”.
Compound `Cc1ccc(Sc2ccccc2N2CCNCC2)c(C)c1.O=S(=O)(O)O` [sulphate, 1-[2-(2,4-Dimethylphenylsulfanyl)-phenyl]piperazine sulphate] has a solubility (physchem) of ~100 µg/mL.
With `Br.Cc1ccc(Sc2ccccc2N2CCNCC2)c(C)c1` [1-[2-(2,4-dimethylphenylsulfanyl)phenyl]piperazine HBr salt] the “extra-cellular levels of ACh in prefrontal cortex” value (acetylcholine; FIG. 19a) was “significantly increased”, the “extra-cellular levels of ACh in ventral hippocampus” value (acetylcholine; FIG. 19b) was “significantly increased” and the “time spent freezing during the retention test” value (Sprague-Dawley rats; 5 mg/kg s.c. 1 h prior to acquisition) was 39.24±13.76%. The “freezing behaviour during the memory test” value (Sprague-Dawley rats; 5 mg/kg s.c. 1 h prior to the retention test, p<0.05) was 12.86±3.57%, the “time spent freezing during the retention test” value (Sprague-Dawley rats; 5 mg/kg s.c. after the acquisition session, p<0.05) was 45.58±4.50% and the “time spent freezing during the retention test” value (Sprague-Dawley rats; 10 mg/kg s.c. 1 h prior to acquisition, p<0.01) was 52.15±5.68%. The “contextual memory” value (Sprague-Dawley rats; rats) was “enhances contextual memory” and the “baseline freezing behaviour before the foot shock” value (Sprague-Dawley rats; rats, 1, 5 and 10 mg/kg s.c. 1 h prior to acquisition) was “does not affect”.
Work on `Cc1ccc(Sc2ccccc2N2CCNCC2)c(C)c1.O=C(O)/C=C/C(=O)O` [fumarate, 1-[2-(2,4-Dimethyl-phenylsulfanyl)-phenyl]-piperazine fumarate] yielded a solubility (physchem) of 400 µg/mL.
With `Cc1ccc(Sc2ccccc2N2CCNCC2)c(C)c1` [crystalline base, 1-[2-(2,4-Dimethylphenylsulfanyl)-phenyl]piperazine] the solubility in water (Solubility in water) was 100 µg/mL (≈ 335 µM) and the “hygroscopicity” value [1] was “not hygroscopic”.
Compound `Cc1ccc(Sc2ccccc2N2CCNCC2)c(C)c1.O=P(O)(O)O` [phosphate, 1-[2-(2,4-Dimethylphenylsulfanyl)-phenyl]piperazine phosphate] has a solubility (physchem) of ~1000 µg/mL.
In the case of `Br.Cc1ccc(Sc2ccccc2N2CCNCC2)c(C)c1` [gamma form of the hydrobromide, 1-[2-(2,4-Dimethylphenylsulfanyl)-phenyl]piperazine hydrobromide], the “water absorbed at 30% RH” value ([1]; 30% RH at room temperature) is reported as “about 2%”.
In the case of `Cc1ccc(Sc2ccccc2N2CCNCC2)c(C)c1.O=C(O)/C=C\C(=O)O` [maleate, 1-[2-(2,4-Dimethylphenylsulfanyl)-phenyl]piperazine Maleate], the solubility (physchem) is reported as ~1000 µg/mL.
